The subject of assay [1] is platelet-poor plasma (PPP). Kind of assay: In vitro aPTT clotting time in platelet-poor plasma. To be noted: PPP incubated 15 min. On the set-up: species or system human. The protocol:
(§1) Figure 2 Effects of CSL on clotting time. (A) Platelet-poor plasma (PPP) was incubated with the indicated concentrations of CSL or rivaroxaban (Riva) for 15 min. (B) One hour after administering DMSO, CSL, or Riva, blood was collected from the mice, and PPP was obtained. Then, in vitro aPTT (A) or ex vivo aPTT was measured, as described in the Methods sections. Data are shown as mean values ± SD of five independent experiments. * p < 0.05 vs. D. D = 0.2% DMSO, used as the vehicle control.
(§2) Ten fasting healthy volunteers (aged 24–28; six women and four men) who were free of allergies, cardiovascular problems, carbohydrate, or lipid metabolic abnormalities and had not taken any morning medication had their blood samples taken. None of our subjects used addictive drugs or antioxidant food supplements, and their diets were well balanced. The plasma from the blood samples was immediately spun down (1300× g for 15 min) to separate it from sodium citrate (10.9 mM) and pooled for the following investigations. Next, human blood samples were spun down at room temperature to rapidly separate the PRP. The PRP concentration was adjusted to 1 × 10^9 platelets/mL using a hemocytometer. After being rinsed once in HEPES buffer containing 1 mM CaCl2, the PRP pellet was maintained at room temperature for an additional 30 min. Then, 10 mL of the platelet samples were utilized to measure each clotting time point. The IRB of Kyungpook National University Hospital (Daegu, Republic of Korea) approved this study protocol (KNUH 2012-01-010).
Plasma was taken by centrifuging blood (2000× g for 10 min) at room temperature following dimethyl sulfoxide (DMSO) or CSL administration for 1 h to assess PT and aPTT using a thrombotimer (Behnk Elektronik, Norderstedt, Germany). Micronized silica was utilized as an activator for the aPTT test. Briefly, 100 μL of platelet-poor plasma (PPP) and 100 μL of aPTT assay reagent were combined for 1 min at 37 °C, 100 µL of CaCl2 (20 mM) was added, and the clotting times were noted. […] Next, the clotting time was measured.

Assay [2] relates to platelet-poor plasma (PPP). Briefly: Ex vivo aPTT clotting time after intravenous injection. The format is in vivo, mouse. To be noted: mice, intravenous. The protocol:
(§3) First, the potential cytotoxicity of […] on HUVECs was assessed using the 3-(4,5-dimethylthiazol-2-yl)-2,5-diphenyltetrazolium bromide (MTT) assay. […] The activated partial thromboplastin time (aPTT) and prothrombin time (PT), two coagulation parameters altered by CSL in vitro, were assessed first. We used the direct FXa inhibitor rivaroxaban as a positive control for our experiments. […] In the aPTT experiments, rivaroxaban at 8.38 μM and CSL at 7.23 μM, respectively, doubled the clotting time. Each mouse group (n = 5) received intravenous injections of CSL for 4 consecutive days to validate the in vitro results in an ex vivo experiment. […] In the ex vivo aPTT assays, treatment with CSL at 0.25 mg/kg and rivaroxaban at 0.29 mg/kg, respectively, doubled the clotting time. The average blood volume was determined to be 2 mL based on an estimated circulating blood volume for mice of 72 mL/kg and an average weight of 27 g for each animal used in this investigation. As a result, the estimated concentration of CSL in the peripheral blood after each injection ([…]) was 2.5, 5, 10, or 20 μM, respectively.
as §1
Male C57BL/6 mice aged 7 weeks (mean weight: 27 g) were purchased from Orient Bio Co., in Sungnam, Republic of Korea, and were subjected to a 12-day acclimatization phase. […]
(§4) Plasma was taken by centrifuging blood (2000× g for 10 min) at room temperature following dimethyl sulfoxide (DMSO) or CSL administration for 1 h to assess PT and aPTT using a thrombotimer (Behnk Elektronik, Norderstedt, Germany). […] Next, the clotting time was measured.

In assay [3] the test system is platelet-poor plasma (PPP). Briefly: Prothrombin time (PT) after administration to mice. It counts as in vivo, mouse. To be noted: administered to mice; data not shown. How it is done:
as §3, §4

The test system of assay [4] is human platelet-rich plasma (PRP). Kind of assay: In vitro agonist-induced platelet aggregation (aggregometer). It counts as cell-based. How it is done: Figure 3 Effects of CSL on agonist-induced platelet aggregation. Platelet-rich plasma (PRP) was preincubated for 5 min with different concentrations of CSL, Riva, or the vehicle. […] Data are shown as mean values ± SD of five independent experiments. * p < 0.05 vs. D. D = 0.2% DMSO, used as the vehicle control.
as §2
CSL dissolved in DMSO was incubated with human PRP for a specified time (1, 3, 5, or 10 min). […]

Assay [5] relates to FeCl3-induced carotid artery thrombosis. Briefly: FeCl3-induced carotid artery thrombosis model. It counts as in vivo, mouse. To be noted: mice. How it is done:
A mouse model of FeCl3-induced thrombosis was created and used. Male C57BL/6 mice were starved for the entire night before receiving intravenous injections of the relevant drug in 0.2 mL of DMSO and were allowed to sleep. The carotid artery of the animal was exposed. The adventitial surface was covered with a cotton thread (200 μm in diameter) soaked in FeCl3 solution (0.25 M) for 5 min. The wound was flushed with saline solution once the thread had been removed. […] We measured the size and rate of thrombus formation, and we graded our results as follows: no thrombus or small thrombus (75–50 μm), medium thrombus (150–100 μm), massive thrombus (300–200 μm), and more than three thrombi. It was also noted how long it took for an extensive thrombus to obstruct the carotid artery following endothelial damage caused by FeCl3.

Assay [6] relates to collagen and epinephrine-induced pulmonary thrombosis. Kind of assay: Acute pulmonary thrombosis induced by collagen and epinephrine. The format is in vivo, mouse. To be noted: for Mortality %: then collagen + epinephrine, mice; for Scored thrombus formation (Thrombi), lung: graded as thrombi per 25 mm^2 lung field. How it is done:
Mice were separated into several groups after being fasted overnight (10 animals each). CSL was dissolved in DMSO and given intravenously to each mouse. After 1 h, the animals received an injection of collagen and epinephrine mixture (500 μg/kg each) to induce acute thrombosis. Each mouse was closely observed for 15 min to see if it had recovered from the acute thrombosis challenge, had been paralyzed, or had passed away. H&E-stained lung tissue slices from five mice were randomly selected for the histologic investigation to determine the extent of pulmonary thrombus development. The number of arteries greater than 20 μm in diameter with any detectable thrombus was counted in each of the five view fields randomly selected from the left lobe in each section (one section per mouse). Twenty-five fields for each group were compared as a result. A total of 60–80 vessels in each segment were imaged using the system (Leica, Germany). The results were graded as the number of thrombi per 25 mm^2 lung field as previously described.

In another assay the test system is platelets. To be noted: cited from earlier work.

Marks after values point to notes of the source that are not given here.

Here are results for one molecule from publication PMC10145360, “Antiplatelet Aggregation Properties of Cirsilineol: A Novel Inhibitor of Blood Coagulation Factor Xa” (Pharmaceuticals, 2023).

Consider `O=C(NC[C@H]1CN(c2ccc(N3CCOCC3=O)cc2)C(=O)O1)c1ccc(Cl)s1` [Rivaroxaban, rivaroxaban, reference compound], for which the “concentration that doubled the clotting time (in vitro aPTT)” value in assay [1] stood at 8.38 µM. Besides, the “dose that doubled the clotting time (ex vivo aPTT)” value in assay [2] came to 0.29 mg/kg. In addition, the PT entry in assay [3] is on record as “did not change”. For the same molecule, the “platelet aggregation induced by ADP” value in assay [4] (ADP 10 μM) is “did not affect”. In addition, the “platelet aggregation induced by U46619” value in assay [4] (U46619 6 μM) is recorded as “did not affect”. Besides, in assay [4] (collagen 1 μg/mL), the “platelet aggregation induced by collagen” value is reported as “did not affect”. In assay [4] (thrombin 3 U/mL), the “platelet aggregation induced by thrombin” value is “did not affect”. The Scored thrombus formation in assay [5] (0.13 mg/kg intravenous) worked out at 3.5 ± 0.1; in assay [5] (0.26 mg/kg intravenous), 3.1 ± 0.3; in assay [5] (0.51 mg/kg intravenous), 2.3 ± 0.1. The “Time to Large Thrombus Formation” value was found to be 15.3 ± 1.1 min in assay [5] (0.13 mg/kg intravenous), 21.8 ± 1.9 min in assay [5] (0.26 mg/kg intravenous) and 44.3 ± 3.1 min in assay [5] (0.51 mg/kg intravenous). For the same molecule, the Mortality % in assay [6] (0.13 mg/kg intravenous) is 85 ^# %; in assay [6] (0.26 mg/kg intravenous) it was 75 ^# %; in assay [6] (0.51 mg/kg intravenous), 55 ^# %. The “Scored thrombus formation (Thrombi), lung” value in assay [6] (0.13 mg/kg intravenous) stood at 3.1 ± 0.1; in assay [6] (0.26 mg/kg intravenous) it was 2.6 ± 0.1; in assay [6] (0.51 mg/kg intravenous), 1.9 ± 0.2. In addition, the platelet aggregation result with platelets (blood taken from patients on rivaroxaban treatment) is on record as “decreased platelet aggregation”. In the assay on platelets (previous studies), the “platelet aggregation brought on by collagen, ADP, thromboxane A2, or thrombin” value is “not to affect”.
